# Test system: Escherichia coli ATCC 25922
# Assay: Minimum inhibitory concentration (MIC), CLSI broth micro-dilution, E. coli
# Format: cell-based
# Details: Escherichia coli, ATCC25922, 22 h, Table 6, cation adjusted Mueller Hinton Broth + 0.002% Tween-80, 35° C.
# Summary of the method: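 Colonies grown 20 h at 35° C on Trypticase Soy agar (MRSA) or Luria agar (E. coli) were suspended in cation-adjusted Mueller Hinton broth with 0.002% Tween-80. Suspensions were added at OD600 0.0005 to 10-point twofold compound dilutions, then incubated 22 h at 35° C.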
row,SMILES,MIC
1,"CCCCc1ccc(-c2cc(N)c(C(=O)N[C@@H](CCN)C(=O)N(C)[C@@H]3C(=O)N[C@@H](C)C(=O)N[C@H](C(=O)NCC#N)Cc4ccc(OCCN)c(c4)-c4cc3ccc4OCCN)c(C)n2)nc1 (racemic) [Compound 529, rac-(8S,11S,14S)-3,18-bis(2-aminoethoxy)-N-(cyanomethyl)-11-methyl-14-[methyl-[rac-(2S)-4-amino-2-[[4-amino-6-(5-butyl-2-pyridyl)-2-methyl-pyridine-3-carbonyl]amino]butanoyl]amino]-10,13-dioxo-9,12-diazatricyclo[13.3.1.12,6]icosa-1(18),2(20),3,5,15(19),16-hexaene-8-carboxamide]",4 µM
2,"Cc1nc(-c2ccc(OC3CCCCCC3)cc2)nc(N)c1C(=O)N[C@@H](CCN)C(=O)N(C)[C@@H]1C(=O)N[C@@H](C)C(=O)N[C@H](C(=O)NCC#N)Cc2ccc(OCCN)c(c2)-c2cc1ccc2OCCN (racemic) [Compound 532, rac-(8S,11S,14S)-3,18-bis(2-aminoethoxy)-N-(cyanomethyl)-11-methyl-14-[methyl-[rac-(2S)-4-amino-2-[[4-amino-2-[4-(cycloheptoxy)phenyl]-6-methyl-pyrimidine-5-carbonyl]amino]butanoyl]amino]-10,13-dioxo-9,12-diazatricyclo[13.3.1.12,6]icosa-1(18),2(20),3,5,15(19),16-hexaene-8-carboxamide]",0.063 µM
3,"CC(=O)Nc1cc(C(=O)N[C@@H](CCN)C(=O)N(C)[C@@H]2C(=O)N[C@@H](C)C(=O)N[C@H](C(=O)NCC#N)Cc3ccc(OCCN)c(c3)-c3cc2ccc3OCCN)c(C)nc1-c1ccc(C(C)(C)C)cc1 (racemic) [Compound 533, rac-(8S,11S,14S)-3,18-bis(2-aminoethoxy)-N-(cyanomethyl)-11-methyl-14-[methyl-[rac-(2S)-2-[[5-acetamido-6-(4-tert-butylphenyl)-2-methyl-pyridine-3-carbonyl]amino]-4-amino-butanoyl]amino]-10,13-dioxo-9,12-diazatricyclo[13.3.1.12,6]icosa-1(18),2(20),3,5,15(19),16-hexaene-8-carboxamide]",1.5 µM
4,"Cc1nc(-c2ccc(OCCC(C)(C)C)cn2)nc(N)c1C(=O)N[C@@H](CCN)C(=O)N(C)[C@@H]1C(=O)N[C@@H](C)C(=O)N[C@H](C(=O)NCC#N)Cc2ccc(OCCN)c(c2)-c2cc1ccc2OCCN (racemic) [Compound 534, rac-(8S,11S,14S)-3,18-bis(2-aminoethoxy)-N-(cyanomethyl)-11-methyl-14-[methyl-[rac-(2S)-4-amino-2-[[4-amino-2-[5-(3,3-dimethylbutoxy)-2-pyridyl]-6-methyl-pyrimidine-5-carbonyl]amino]butanoyl]amino]-10,13-dioxo-9,12-diazatricyclo[13.3.1.12,6]icosa-1(18),2(20),3,5,15(19),16-hexaene-8-carboxamide]",0.5 µM
5,"Cc1nc(-c2ccc(OCCC(C)(C)C)cc2)cc(N)c1C(=O)N[C@@H](CCN)C(=O)N(C)[C@@H]1C(=O)N[C@@H](C)C(=O)N[C@H](C(=O)NCC#N)Cc2ccc(OCCN)c(c2)-c2cc1ccc2OCCN (racemic) [Compound 538, rac-(8S,11S,14S)-3,18-bis(2-aminoethoxy)-N-(cyanomethyl)-11-methyl-14-[methyl-[rac-(2S)-4-amino-2-[[4-amino-6-[4-(3,3-dimethylbutoxy)phenyl]-2-methyl-pyridine-3-carbonyl]amino]butanoyl]amino]-10,13-dioxo-9,12-diazatricyclo[13.3.1.12,6]icosa-1(18),2(20),3,5,15(19),16-hexaene-8-carboxamide]",0.063 µM
6,"Cc1nc(-c2ccc(OC3CCCCCC3)cc2)cc(N)c1C(=O)N[C@@H](CCN)C(=O)N(C)[C@@H]1C(=O)N[C@@H](C)C(=O)N[C@H](C(=O)NCC#N)Cc2ccc(OCCN)c(c2)-c2cc1ccc2OCCN (racemic) [Compound 545, rac-(8S,11S,14S)-3,18-bis(2-aminoethoxy)-N-(cyanomethyl)-11-methyl-14-[methyl-[rac-(2S)-4-amino-2-[[4-amino-6-[4-(cycloheptoxy)phenyl]-2-methyl-pyridine-3-carbonyl]amino]butanoyl]amino]-10,13-dioxo-9,12-diazatricyclo[13.3.1.12,6]icosa-1(18),2(20),3,5,15(19),16-hexaene-8-carboxamide]",1 µM

# More lines, now with the values ahead:
row,MIC,SMILES
1,0.25 µM,"Cc1nc(-c2ccc(C(C)(C)C)cc2)c(C(F)(F)F)cc1C(=O)N[C@@H](CCN)C(=O)N(C)[C@@H]1C(=O)N[C@@H](C)C(=O)N[C@H](C(=O)NCC#N)Cc2ccc(OCCN)c(c2)-c2cc1ccc2OCCN (racemic) [Compound 537, rac-(8S,11S,14S)-3,18-bis(2-aminoethoxy)-N-(cyanomethyl)-11-methyl-14-[methyl-[rac-(2S)-4-amino-2-[[6-(4-tert-butylphenyl)-2-methyl-5-(trifluoromethyl)pyridine-3-carbonyl]amino]butanoyl]amino]-10,13-dioxo-9,12-diazatricyclo[13.3.1.12,6]icosa-1(18),2(20),3,5,15(19),16-hexaene-8-carboxamide]"
2,1.5 µM,"Cc1nc(-c2cnc(C(C)(C)C)nc2)nc(C)c1C(=O)N[C@@H](CCN)C(=O)N(C)[C@@H]1C(=O)N[C@@H](C)C(=O)N[C@H](C(=O)NCC#N)Cc2ccc(OCCN)c(c2)-c2cc1ccc2OCCN (racemic) [Compound 540, rac-(8S,11S,14S)-3,18-bis(2-aminoethoxy)-N-(cyanomethyl)-11-methyl-14-[methyl-[rac-(2S)-4-amino-2-[[2-(2-tert-butylpyrimidin-5-yl)-4,6-dimethyl-pyrimidine-5-carbonyl]amino]butanoyl]amino]-10,13-dioxo-9,12-diazatricyclo[13.3.1.12,6]icosa-1(18),2(20),3,5,15(19),16-hexaene-8-carboxamide]"
3,0.75 µM,"Cc1cc(-c2ccc(C(C)(C)C)cc2)cc(C)c1C(=O)N[C@@H](CCN)C(=O)N(C)[C@@H]1C(=O)N[C@@H](C)C(=O)N[C@H](C(=O)NCC#N)Cc2ccc(O)c(c2)-c2cc1ccc2OCCN (racemic) [Compound 541, rac-(8S,11S,14S)-18-(2-aminoethoxy)-N-(cyanomethyl)-3-hydroxy-11-methyl-14-[methyl-[rac-(2S)-4-amino-2-[[4-(4-tert-butylphenyl)-2,6-dimethyl-benzoyl]amino]butanoyl]amino]-10,13-dioxo-9,12-diazatricyclo[13.3.1.12,6]icosa-1(18),2(20),3,5,15(19),16-hexaene-8-carboxamide]"
4,0.13 µM,"Cc1nc(-c2ccc(OC3CCCCC3)cc2)cc(N)c1C(=O)N[C@@H](CCN)C(=O)N(C)[C@@H]1C(=O)N[C@@H](C)C(=O)N[C@H](C(=O)NCC#N)Cc2ccc(OCCN)c(c2)-c2cc1ccc2OCCN (racemic) [Compound 544, rac-(8S,11S,14S)-3,18-bis(2-aminoethoxy)-N-(cyanomethyl)-11-methyl-14-[methyl-[rac-(2S)-4-amino-2-[[4-amino-6-[4-(cyclohexoxy)phenyl]-2-methyl-pyridine-3-carbonyl]amino]butanoyl]amino]-10,13-dioxo-9,12-diazatricyclo[13.3.1.12,6]icosa-1(18),2(20),3,5,15(19),16-hexaene-8-carboxamide]"
